# Measured values as given in patent publication US4031205A, “Method for treating nervous bladder” (priority 1975, dated 1977).
# How the values were obtained:
# [1] = Physical and chemical properties: solubility; type: physicochemical
# Excerpt: Ubiquinone n, for example, Ubiquinone 10(CoQ10), can be mainly obtained synthetically, though it is possible to extract the Ubiquinone from animal organs. Physical and chemical properties of Ubiquinone 10(CoQ10) produced synthetically are as follows.
# rats of Wistar strain [2] = assay: Acute toxicity test in rats; conditions: for Maximum dose (no case of deaths): single dose, 7 days observation
# Excerpt: (§1) In order to evaluate the acute toxicity of a single high dose administration of Ubiquinone 10(CoQ10), male and female rats of Wistar strain and male and female mice of ICR-JCL strain were used, and oral, intramuscular, subcutaneous, and intravenous administrations were studied. For the oral administration of Ubiquinone 10(CoQ10), gum Arabic suspension was used. For the intramuscular, subcutaneous, and intravenous administrations, Ubiquinone 10(CoQ10) is used as its solution in surfactant, hydrogenated castor oil ethylene oxide addition product (HCO-60).
# (§2) Observation was carried out for 7 days, by using six males and six females for each dose group.
# mice of ICR-JCL strain = assay: Acute toxicity test in mice; conditions: for Maximum dose (no case of deaths): single dose, 7 days observation
# Excerpt: as §1, §2
# rabbits = assay: Subacute oral toxicity test in rabbits
# Excerpt: (§3) Ubiquinone 10(CoQ10) was compulsorily and orally administered every day for 23 days to each group consisting of six male rabbits and five female rabbits. […] On the 24th day, blood samples were collected from all the animals, and three males and two females from each group were then selectively autopsied.
# rats = assay: Teratogenesis test in rats; type: in vivo, rat; conditions: 6, 60, and 600 mg/Kg/day
# mice = assay: Teratogenesis test in mice; type: in vivo, mouse; conditions: 6, 60, and 600 mg/Kg/day
# [3] = in vivo
# Excerpt: as §1, §2
# The dose was 40, 200, and 1000 mg/Kg/day, respectively.
# as §3
# [4] = Clinical test: effectiveness of Ubiquinone 10(CoQ10) for nervous bladder; type: in vivo, human; parameters: Pressure curve Volume: unit not given beside the values; Residual urine / Urethral R. (Resistance): unit not given here
# Method: Six patients compalining of dysuria and incontinentia urinac due to nervous bladder were made sujects. Case 1 was nocturnal enuresis of unknown cause, Cases 2-4 were impairement of root of spinal nerve (nuclear type), and Cases 5 and 6 were spinal impairements (supra nuclear type).
# Hard capsules containing 5 mg of Ubiquinone 10(CoQ10) in the present invention were orally administered.
# The dose of 1-3 capsules each time was orally administered 3 times a day after meals for consecutive 3-4 weeks as a rule. Depending on cases, 10 mg of Ubiquinone 10(CoQ10) was concurrently injected. The measurement of bladder functions, that is, the measurement of the pressure curve in the bladder, was carried out in accordance with any conventional method. However, the quantitative bladder crystometrographic curve (BR) was obtained by a modified method for the crystometry. More particularly, the curve was prepared by observing the condition of weak autonomic rhythmical contraction of the bladder wall, when the sensitivity and the recording rate of a crystometer were risen after the infusion of a certain amount of the solution.
# rats of Wistar strain [5] = conditions: rat, in vivo, po
# Method: (§4) Ubiquinone 10(CoQ10) was compulsorily and orally administered every day for 5 weeks to each group consisting of 10 male rats and 10 female rats of Wistar strain. The dose was 40, 200, and 1000 mg/Kg/day, respectively. Ubiquinone 10(CoQ10) was used in the form of gum Arabic suspension, while the solution containing gum Arabic alone was used as the control group. Collection of blood and urine samples and autopsies were carried out 5 weeks after the initiation of administration.
# rats of Wistar strain [6] = assay: Chronic oral toxicity test
# Method: Ubiquinone 10(CoQ10) was compulsorily and orally administered to each group consisting of 10 male rats and 10 female rats of Wistar strain for consecutive 26 weeks in a ratio of 6 days a week. The dose was 6, 60 and 600 mg/Kg/day, respectively. ubiquinone 10(CoQ10) was used in the form of gum Arabic suspension, whereas the solution containing gum Arabic alone is used as the control group. Collection of blood and urine samples and autopsies were carried out 26 weeks after the administration.
# rats of Wistar strain [7] = assay: Subacute toxicity test in rats
# Method: as §4
# [8] = 6, 60, 600 mg/Kg/day oral, 23 days
# [9] = Case 1, 20 days with 3 capsules
# [10] = Case 1, 20 days with 3 capsules, After (Before: +)
# [11] = Case 2, 30 days with 3 OR 20 days with 4 capsules
# [12] = Case 3, 30 days with 1 OR 3 capsules
# [13] = Case 4, 30 days with 3 capsules
# [14] = Case 5, 50 days with 1 capsule, After (Before: ++)
# [15] = Case 6, 30 days with 3 capsules
# [16] = 6, 60, 600 mg/Kg/day oral, 26 weeks
# [17] = spontaneous pneumonia and aspiration pneumonia due to erroneous administration, group not stated
structure (smiles),measurement,setting,value
COC1=C(OC)C(=O)C(CC=C(C)CCC=C(C)CCC=C(C)CCC=C(C)CCC=C(C)CCC=C(C)CCC=C(C)CCC=C(C)CCC=C(C)CCC=C(C)C)=C(C)C1=O [Ubiquinone 10(CoQ10)],solubility,[1]; acetone,soluble
same,solubility,[1]; benzene,easily soluble
same,solubility,[1]; carbon tetrachloride,easily soluble
same,solubility,[1]; chloroform,easily soluble
same,solubility,[1]; ethanol,insoluble
same,solubility,[1]; ether,soluble
same,solubility,[1]; methanol,hardly soluble
same,solubility,[1]; water,hardly soluble
same,"general condition, body weight, food intake and autopsy findings","rats of Wistar strain [2]; rat, in vivo",no change was recognized
same,deaths,"rats of Wistar strain [2]; rats, at the maximum dose in each administration route",no case of deaths
same,Maximum dose (no case of deaths),"rats of Wistar strain [2]; rats, intramuscular",500 mg/kg
same,Maximum dose (no case of deaths),"rats of Wistar strain [2]; rats, intravenous",250 mg/kg
same,Maximum dose (no case of deaths),"rats of Wistar strain [2]; rats, oral",4000 mg/kg
same,Maximum dose (no case of deaths),"rats of Wistar strain [2]; rats, subcutaneous",500 mg/kg
same,LD50,"rats of Wistar strain [2]; rats, maximum doses of Table 1",far higher than the maximum dose mentioned above
same,deaths,"mice of ICR-JCL strain; mice, at the maximum dose in each administration route",no case of deaths
same,Maximum dose (no case of deaths),"mice of ICR-JCL strain; mice, intramuscular",500 mg/kg
same,Maximum dose (no case of deaths),"mice of ICR-JCL strain; mice, intravenous",250 mg/kg
same,Maximum dose (no case of deaths),"mice of ICR-JCL strain; mice, oral",4000 mg/kg
same,Maximum dose (no case of deaths),"mice of ICR-JCL strain; mice, subcutaneous",500 mg/kg
same,LD50,"mice of ICR-JCL strain; mice, maximum doses of Table 1",far higher than the maximum dose mentioned above
same,"general condition, body weight, food intake and autopsy findings","mice of ICR-JCL strain; mouse, in vivo",no change was recognized
same,general condition and increase of body weight vs control,rabbits; [8],no difference
same,weight of each organ,rabbits; [8],no effect
same,hematological test and biochemical test of blood,"rabbits; 6, 60, 600 mg/Kg/day oral, 23 days, 24th day",Abnormal findings were not obtained
same,macroscopical and histological observation,"rabbits; hematoxylin.Eosine staining and liver fat staining, 23 days oral",abnormalities were not recognized
same,electron-microscopic observation of liver (minute structure),"rabbits; seventh, 14th and 24th days",there were not recognized abnormal findings
same,toxicity (overall),"rabbits; subacute oral, 23 days",there were not recognized the findings wherein the toxicity of Ubiquinone 10(CoQ10) will be suggested
same,"adverse effects in mothers, fetuses, and newborns",rats,no adverse effects were noted
same,"adverse effects in mothers, fetuses, and newborns",mice,no adverse effects were noted
same,overall safety,[3],"a very safe drug, without side-effects"
same,Residual urine,"[4]; Case 1 (nocturnal enuresis), 20 days with 3 capsules, After (Before: 35)",5
same,Effectiveness: Volume,[4]; [9],increased
same,Evaluation,[4]; [9],Effective
same,Urethral R. (Resistance),"[4]; Case 1, 20 days with 3 capsules, After (Before: 110)",100
same,Pressure curve Volume,"[4]; Case 1, 20 days with 3 capsules, After (Before: 295)",340
same,Basal Pressure BR,[4]; [10],Normal
same,Basal Pressure SR,[4]; [10],Normal
same,Residual urine,"[4]; Case 2 (spina bifida), 30 days with 3 capsules OR 20 days with 4 capsules, After (Before: 0)",0
same,Effectiveness: Volume,[4]; [11],increased
same,Evaluation,[4]; [11],Unchanged
same,Urethral R. (Resistance),"[4]; Case 2, 30 days with 3 OR 20 days with 4 capsules, After (Before: 30)",33
same,Pressure curve Volume,"[4]; Case 2, 30 days with 3 OR 20 days with 4 capsules, After (Before: 90)",110
same,Residual urine,"[4]; Case 3 (spina bifida), 30 days with 1 capsule OR 30 days with 3 capsules, After (Before: 75)",65
same,Effectiveness: Curve,[4]; [12],improved
same,Effectiveness: Residual urine,[4]; [12],decreased
same,Effectiveness: Volume,[4]; [12],increased
same,Evaluation,[4]; [12],Effective
same,Pressure curve Volume,"[4]; Case 3, 30 days with 1 OR 3 capsules, After (Before: 150)",200
same,Residual urine,"[4]; Case 4 (spina bifida), 30 days with 3 capsules, After (Before: 95)",70
same,Effectiveness: Anischuria,[4]; [13],improved
same,Effectiveness: BR,[4]; [13],appeared
same,Effectiveness: Volume,[4]; [13],increased
same,Urethral R. (Resistance),"[4]; Case 4, 30 days with 3 capsules, After (Before: 45)",49
same,Pressure curve Volume,"[4]; Case 4, 30 days with 3 capsules, After (Before: 130)",345
same,Basal Pressure BR,"[4]; Case 4, 30 days with 3 capsules, After (Before: ±)",Normal
same,Residual urine,"[4]; Case 5 (paraplegia), 50 days with 1 capsule, After (Before: 20)",0
same,Effectiveness: BR SR,"[4]; Case 5, 50 days with 1 capsule",normalized
same,Effectiveness: Curve,"[4]; Case 5, 50 days with 1 capsule",improved
same,Urethral R. (Resistance),"[4]; Case 5, 50 days with 1 capsule, After (Before: 76)",73
same,Pressure curve Volume,"[4]; Case 5, 50 days with 1 capsule, After (Before: 240)",260
same,Basal Pressure BR,[4]; [14],Normal
same,Basal Pressure SR,[4]; [14],Normal
same,Pressure curve Volume,"[4]; Case 6 (Myelitis Adhesiva), 30 days with 3 capsules, After (Before: 150)",150
same,Effectiveness: Curve,[4]; [15],improved
same,Effectiveness: SR,[4]; [15],improved
same,Pressure curve Type,"[4]; Case 6, 30 days with 3 capsules, After (Before: Reflex)",Reflex
same,"effective results and markedly effective results, number of cases",[4]; among the 6 cases,5 cases
same,macroscopical and histological observation,rats of Wistar strain [5],abnormality was not recognized
same,biochemical tests of blood and urine vs control,rats of Wistar strain [6]; [16],No significant change
same,body weight,rats of Wistar strain [6]; [16],increased as same as that of the control group
same,weight of organ,rats of Wistar strain [6]; [16],no significant increase and decrease
same,general condition vs control,"rats of Wistar strain [6]; 6, 60, 600 mg/Kg/day oral, 6 days a week, 26 weeks",no difference
same,toxicity (overall),"rats of Wistar strain [6]; chronic oral, 26 weeks",no toxicity was observed
same,macroscopical and histological observation vs control,"rats of Wistar strain [6]; hemoxylin.Eosine staining and liver fat staining, 26 weeks",abnormalities were not recognized
same,leukocytal percentages,"rats of Wistar strain [6]; some increase and decrease, not dose dependent, 26 weeks",within extent of physiological fluctuations
same,"animals died, females",rats of Wistar strain [6]; [17],3
same,"animals died, males",rats of Wistar strain [6]; [17],11
same,dead animals during the experiment,"rats of Wistar strain [7]; spontaneous pneumonia and aspiration pneumonia due to error of administration, group not stated",4
same,toxicity (overall),"rats of Wistar strain [7]; subacute oral, 5 weeks",there was not recognized the toxicity
